The structures appear in SMILES notation.

For one assay, the target named is human RORγt LBD fused to the DNA binding domain of the GAL4 protein (Homo sapiens (Human), UniProt P51449). As to the kind of experiment: RORγt (LBD) reporter assay in HEK293T cells. It counts as cell-based. Conditions: @ 6 μM.
Sequence of human RORγt LBD fused to the DNA binding domain of the GAL4 protein (P51449 258-518): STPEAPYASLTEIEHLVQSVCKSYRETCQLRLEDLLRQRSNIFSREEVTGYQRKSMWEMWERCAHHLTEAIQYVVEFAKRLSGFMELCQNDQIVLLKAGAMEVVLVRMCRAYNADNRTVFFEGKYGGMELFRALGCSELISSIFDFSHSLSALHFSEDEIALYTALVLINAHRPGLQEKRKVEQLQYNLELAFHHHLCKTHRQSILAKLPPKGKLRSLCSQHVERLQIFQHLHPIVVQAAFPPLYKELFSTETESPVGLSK
From the text: A reporter assay was used to test functional activity of RORγt modulatory compounds on transcriptional activation driven by the RORγt LBD. Cells used in the assay were co-transfected with two constructs. The first construct, pBIND-RORγt LBD, contained the wild type human RORγt LBD fused to the DNA binding domain of the GAL4 protein. The second construct, pGL4.31 (Promega Cat no. C935A), contained multiple GAL4 responsive DNA elements upstream of firefly luciferase.
The pBIND vector contains the GAL4 DNA Binding Domain (GAL4 DBD) and the renilla luciferase gene under control of the SV40 promoter. Renilla luciferase expression serves as a control for transfection efficiency and cell viability.
The reporter assay was performed by transiently transfecting HEK293T cells with 5 μg of pBIND-RORγt LBD or pBIND-RORγt LBD-AF2 and 5 μg pGL4.31 (Promega Cat no. C935A) using Fugene 6 (Invitrogen Cat no. E2691) at a 1:6 ratio of DNA:Fugene 6 in a T-75 flask in which cells were at least 80% confluent. Twenty four hours after bulk transfection, cells were plated into 96-well plates at 50,000 cells/well in phenol-red free DMEM containing 5% Lipid Reduced FCS and Pen/Strep. Six hours after plating, cells were treated with compounds for 24 hours. Media was removed and cells were lysed with 50 μL 1× Glo Lysis Buffer (Promega). Dual Glo Luciferase Reagent (50 μL/well) was then added and firefly luciferase luminescence was read on an Envision after a ten minute incubation. Finally, Stop and Glo reagent (50 L/well) was added and renilla luciferase luminescence was read on an Envision after a ten minute incubation. To calculate the effect of compounds on RORγt activity, the ratio of firefly to renilla luciferase was determined and plotted against compound concentration. Agonist compounds increase RORγt-driven luciferase expression, and antagonist or inverse agonist compounds decrease luciferase expression.
As to `COc1nc2ccc(C(O)(c3ccc(C)nc3C)c3cnnn3C)cc2c(Cl)c1CC1CCC(F)(F)CC1` (single isomer, unassigned) [Example 1c, (4-Chloro-3-((4,4-difluorocyclohexyl)methyl)-2-methoxyquinolin-6-yl)(2,6-dimethylpyridin-3-yl)(1-methyl-1H-1,2,3-triazol-5-yl)methanol], the “RORγt (LBD) Reporter Assay, % inhibition @ 6 μM” value (“RORγt … % inhibition @ 6 μM” below) is given as 66%. The same measure, in the same setting: the figure for `COc1nc2ccc(C(O)(c3cncn3C)C3CCN(C(C)=O)CC3)cc2c(Cl)c1CC1CCOCC1` (single isomer, unassigned) [Example 5c, 1-(4-((4-Chloro-2-methoxy-3-((tetrahydro-2H-pyran-4-yl)methyl)quinolin-6-yl)(hydroxy)(1-methyl-1H-imidazol-5-yl)methyl)piperidin-1-yl)ethanone] is 36%; for `COc1nc2ccc(C(O)(c3ccc(C)nc3C)c3cnnn3C)cc2c(Cl)c1C` (single isomer, unassigned) [Example 12b, (4-Chloro-2-methoxy-3-methylquinolin-6-yl)(2,6-dimethylpyridin-3-yl)(1-methyl-1H-1,2,3-triazol-5-yl)methanol] it is 23%; for `COc1nc2ccc(C(O)(c3ccc(C)nc3C)c3cnnn3C)cc2c(Cl)c1C` (single isomer, unassigned) [Example 12c, (4-Chloro-2-methoxy-3-methylquinolin-6-yl)(2,6-dimethylpyridin-3-yl)(1-methyl-1H-1,2,3-triazol-5-yl)methanol] it is 93%. Same read-out and setting: the figure for `COc1nc2ccc(C(O)(c3ccc(C)nc3C)c3cnnn3C)cc2c(Cl)c1CC1CC1` (single isomer, unassigned) [Example 14b, (4-Chloro-3-(cyclopropylmethyl)-2-methoxyquinolin-6-yl)(2,6-dimethylpyridin-3-yl)(1-methyl-1H-1,2,3-triazol-5-yl)methanol] is 72%; for `COc1nc2ccc(C(O)(c3ccc(C)nc3C)c3cnnn3C)cc2c(Cl)c1CC1CC1` (single isomer, unassigned) [Example 14c, (4-Chloro-3-(cyclopropylmethyl)-2-methoxyquinolin-6-yl)(2,6-dimethylpyridin-3-yl)(1-methyl-1H-1,2,3-triazol-5-yl)methanol] it is 98%. On the same count and under the same terms, next, `COc1nc2ccc(C(O)(c3ccc(C)nc3C)c3cnnn3C)cc2c(Cl)c1OCC1CC1` (single isomer, unassigned) [Example 68b, [4-Chloro-3-(cyclopropylmethoxy)-2-methoxyquinolin-6-yl](2,6-dimethylpyridin-3-yl)(1-methyl-1H-1,2,3-triazol-5-yl)methanol]: 54%; `COc1nc2ccc(C(O)(c3ccc(C)nc3C)c3cnnn3C)cc2c(Cl)c1OCC1CC1` (single isomer, unassigned) [Example 68c, [4-Chloro-3-(cyclopropylmethoxy)-2-methoxyquinolin-6-yl](2,6-dimethylpyridin-3-yl)(1-methyl-1H-1,2,3-triazol-5-yl)methanol]: 87%. Regarding `COc1nc2ccc(C(O)(c3ccc(C)nc3C)c3cnnn3C)cc2c(Cl)c1OC1CCOCC1` (single isomer, unassigned) [Example 69b, [4-Chloro-2-methoxy-3-(tetrahydro-2H-pyran-4-yloxy)quinolin-6-yl](2,6-dimethylpyridin-3-yl)(1-methyl-1H-1,2,3-triazol-5-yl)methanol], the “RORγt … % inhibition @ 6 μM” value worked out at 37%.

As to `COc1nc2ccc(C(O)(c3ccc(C)nc3C)c3cnnn3C)cc2c(Cl)c1OC1CCOCC1` (single isomer, unassigned) [Example 69c, [4-Chloro-2-methoxy-3-(tetrahydro-2H-pyran-4-yloxy)quinolin-6-yl](2,6-dimethylpyridin-3-yl)(1-methyl-1H-1,2,3-triazol-5-yl)methanol], the “RORγt … % inhibition @ 6 μM” value was 61%. As to `COc1nc2ccc(C(O)(c3ccc(C)nc3C)c3cnnn3C)cc2c(Cl)c1OCC1CC1(F)F` (single isomer, unassigned) [Example 72b, {4-Chloro-3-[(2,2-difluorocyclopropyl)methoxy]-2-methoxyquinolin-6-yl}(2,6-dimethylpyridin-3-yl)(1-methyl-1H-1,2,3-triazol-5-yl)methanol], the “RORγt … % inhibition @ 6 μM” value is 53%. The same measure, in the same setting: next, `COc1nc2ccc(C(O)(c3ccc(C)nc3C)c3cnnn3C)cc2c(Cl)c1OCC1CC1(F)F` (single isomer, unassigned) [Example 72c, {4-Chloro-3-[(2,2-difluorocyclopropyl)methoxy]-2-methoxyquinolin-6-yl}(2,6-dimethylpyridin-3-yl)(1-methyl-1H-1,2,3-triazol-5-yl)methanol]: 86%. With `COc1nc2ccc(C(O)(c3ccc(C)nc3C)c3cnnn3C)cc2c(Cl)c1OCc1nccs1` (single isomer, unassigned) [Example 73b, [4-Chloro-2-methoxy-3-(1,3-thiazol-2-ylmethoxy)quinolin-6-yl](2,6-dimethylpyridin-3-yl)(1-methyl-1H-1,2,3-triazol-5-yl)methanol], the “RORγt … % inhibition @ 6 μM” value is −15%. Same read-out and setting: next, `COc1nc2ccc(C(O)(c3ccc(C)nc3C)c3cnnn3C)cc2c(Cl)c1OCc1nccs1` (single isomer, unassigned) [Example 73c, [4-Chloro-2-methoxy-3-(1,3-thiazol-2-ylmethoxy)quinolin-6-yl](2,6-dimethylpyridin-3-yl)(1-methyl-1H-1,2,3-triazol-5-yl)methanol]: −80%.

The same assay, now with this note: HEK-293T, read-out: RORγt (LBD) Reporter Assay, % inhibition @ 6 μM, @ 6 μM.
As for `COc1nc2ccc(C(O)(c3ccc(C)nc3C)c3cnnn3C)cc2c(Cl)c1CC1CCC(F)(F)CC1` (single isomer, unassigned) [Example 1b, (4-Chloro-3-((4,4-difluorocyclohexyl)methyl)-2-methoxyquinolin-6-yl)(2,6-dimethylpyridin-3-yl)(1-methyl-1H-1,2,3-triazol-5-yl)methanol], the inhibition at 6 µM came out at 78%. Turning to `COc1nc2ccc(C(O)(c3cncn3C)C3CCN(C(C)=O)CC3)cc2c(Cl)c1CC1CCOCC1` (single isomer, unassigned) [Example 5b, 1-(4-((4-Chloro-2-methoxy-3-((tetrahydro-2H-pyran-4-yl)methyl)quinolin-6-yl)(hydroxy)(1-methyl-1H-imidazol-5-yl)methyl)piperidin-1-yl)ethanone], the inhibition at 6 µM was determined as 33%.

`COc1nc2ccc(C(O)(c3ccc(C)nc3C)c3cnnn3C)cc2c(Cl)c1OC1CCN(C)CC1` (single isomer, unassigned) [Example 65b, {4-Chloro-2-methoxy-3-[(1-methylpiperidin-4-yl)oxy]quinolin-6-yl}(2,6-dimethylpyridin-3-yl)(1-methyl-1H-1,2,3-triazol-5-yl)methanol]: the inhibition at 6 µM came to 39%. Still for that read-out and setting: next, `COc1nc2ccc(C(O)(c3ccc(C)nc3C)c3cnnn3C)cc2c(Cl)c1OCc1ncccn1` (single isomer, unassigned) [Example 66b, [4-Chloro-2-methoxy-3-(pyrimidin-2-ylmethoxy)quinolin-6-yl](2,6-dimethylpyridin-3-yl)(1-methyl-1H-1,2,3-triazol-5-yl)methanol]: -129%.

The inhibition is the relative decrease from the control value, in per cent.

The values above are taken from US10201546B2, “Quinolinyl modulators of RORγt” (Janssen Pharmaceutica NV, priority 2013, dated 2019).
